Activity calls are given as the source filed them. The rule behind the calls is not given here. Residues, ends and D or L forms follow the SMILES beside them. *: point of attachment. RhodamineB = CCN(CC)c1ccc2c(-c3ccccc3C(=O)*)c3ccc(=[N+](CC)CC)cc-3oc2c1
Experiments:
Alpha-synuclein [1] = molecular target: T1, Alpha-synuclein (Homo sapiens, UniProt P37840); assay: Induction of EGFP-fused alpha-synuclein (unknown origin) degradation overexpressed in HEK293T cells at 50 uM incubated for 2 hrs by confocal laser scanning microscopy; assay type: cell-based
[2] = Drug localization in HEK293T cells assessed as colocalization of lysosomes at 50 uM incubated for 2 hrs by LyTG staining based confocal laser scanning microscopy; assay type: ADME, cell-based; settings: human, hek-293t
[3] = molecular target: T2, Microtubule-associated protein 1 light chain 3 beta (Homo sapiens, UniProt Q9GZQ8); assay: Binding affinity to EGFP-fused LC3B (unknown origin) overexpressed in HEK293T cells at 50 uM incubated for 2 hrs by confocal laser scanning microscopy; assay type: cell-based
[4] = Drug uptake in wild-type HEK293T cells assessed as drug penetration upto 50 uM incubated for 2 hrs by confocal laser scanning microscopy; assay type: ADME, cell-based; settings: human, hek-293t
[5] = Drug uptake in wild-type HEK293T cells assessed as drug penetration upto 100 uM incubated for 2 hrs by flow cytometry; assay type: ADME, cell-based; settings: human, hek-293t
[6] = Drug uptake in wild-type HEK293T cells assessed as drug penetration at 50 uM incubated upto 4 hrs by flow cytometry; assay type: ADME, cell-based; settings: human, hek-293t
Alpha-synuclein [7] = molecular target: T1, Alpha-synuclein; assay: Induction of alpha-synuclein (unknown origin) degradation overexpressed in HEK293T cells at 50 to 100 uM incubated for 24 hrs by immunoblot analysis; assay type: cell-based; settings: dose 50-100 µM
[8] = Chemical stability of compound in cell culture medium at 50 uM measured for 24 hrs by HPLC analysis; assay type: physicochemical
Alpha-synuclein [9] = molecular target: T1, Alpha-synuclein; assay: Induction of alpha-synuclein (unknown origin) degradation overexpressed in HEK293T cells infected with adenovirus expressing mCherry-EGFP-LC3B incubated for 24 hrs by immunoblot analysis; assay type: cell-based; settings: for Activity: dose <= 200.0 µM
SH-SY5Y = assay: Cytotoxicity against wild-type human SH-SY5Y cells assessed as cell viability upto 200 uM incubated for 24 hrs by CCK8 assay; assay type: functional, cell-based
HEK-293T = assay: Cytotoxicity against wild-type HEK293T cells assessed as cell viability upto 200 uM incubated for 24 hrs by CCK8 assay; assay type: toxicity, cell-based; settings: human
[10] = molecular target: T2, Microtubule-associated protein 1 light chain 3 beta; assay: Binding affinity to biotinylated recombinant LC3B (unknown origin) assessed as dissociation constant by BLI assay
Alpha-synuclein [11] = molecular target: T1, Alpha-synuclein; assay: Binding affinity to biotinylated recombinant alpha-synuclein (unknown origin) assessed as dissociation constant by BLI assay

Compound	Stability [8]	DC50 (Alpha-synuclein [9]) [µM]	Activity (Alpha-synuclein [9])	Activity (SH-SY5Y)	Activity (HEK-293T)	also measured
CCN(CC)c1ccc2c(-c3ccccc3C(=O)NCC(=O)N[C@H](C(=O)N[C@@H](CC(C)C)C(=O)N[C@@H](Cc3ccc(O)cc3)C(=O)N[C@H](C(=O)NCC(=O)N[C@@H](CO)C(=O)N[C@@H](CCCCN)C(=O)N[C@H](C(=O)N[C@@H](CCCNC(=N)N)C(=O)NCC(=O)N[C@@H](CO)C(=O)NCC(=O)N[C@@H](CO)C(=O)N[C@@H](CO)C(=O)NCC(=O)NCC(=O)N[C@@H](CC(=O)O)C(=O)N[C@@H](CC(=O)O)C(=O)N[C@@H](CC(=O)O)C(=O)N[C@@H](Cc3c[nH]c4ccccc34)C(=O)N[C@H](C(=O)N[C@@H](Cc3c[nH]cn3)C(=O)N[C@@H](CC(C)C)C(=O)N[C@@H](CO)C(=O)N[C@@H](CO)C(=O)N[C@@H](Cc3ccc(O)cc3)C(=O)NCC(=O)N[C@@H](CCCNC(=N)N)C(=O)N[C@@H](CCCCN)C(=O)N[C@@H](CCCCN)C(=O)N[C@@H](CCCNC(=N)N)C(=O)N[C@@H](CCCNC(=N)N)C(=O)N[C@@H](CCC(N)=O)C(=O)N[C@@H](CCCNC(=N)N)C(=O)N[C@@H](CCCNC(=N)N)C(=O)N[C@@H](CCCNC(=N)N)C(=O)O)[C@@H](C)O)[C@@H](C)O)C(C)C)C(C)C)c3ccc(=[N+](CC)CC)cc-3oc2c1.[Cl-] (RhodamineB-GVLYVGSKTRGSGSSGGDDDWTHLSSYGRKKRRQRRR-OH)						Activity (Alpha-synuclein [1]): Active; Drug uptake [2]: Active; Activity [3]: Active; Drug uptake [4]: Active; Drug uptake [5]: Active; Drug uptake [6]: Active
CC(C)C[C@H](NC(=O)[C@@H](NC(=O)CN)C(C)C)C(=O)N[C@@H](Cc1ccc(O)cc1)C(=O)N[C@H](C(=O)NCC(=O)N[C@@H](CO)C(=O)N[C@@H](CCCCN)C(=O)N[C@H](C(=O)N[C@@H](CCCNC(=N)N)C(=O)NCC(=O)N[C@@H](CO)C(=O)NCC(=O)N[C@@H](CO)C(=O)N[C@@H](CO)C(=O)NCC(=O)NCC(=O)N[C@@H](CC(=O)O)C(=O)N[C@@H](CC(=O)O)C(=O)N[C@@H](CC(=O)O)C(=O)N[C@@H](Cc1c[nH]c2ccccc12)C(=O)N[C@H](C(=O)N[C@@H](Cc1c[nH]cn1)C(=O)N[C@H](C(=O)N[C@@H](CO)C(=O)N[C@@H](CO)C(=O)N[C@@H](Cc1ccc(O)cc1)C(=O)NCC(=O)N[C@@H](CCCNC(=N)N)C(=O)N[C@@H](CCCCN)C(=O)N[C@@H](CCCCN)C(=O)N[C@@H](CCCNC(=N)N)C(=O)N[C@@H](CCCNC(=N)N)C(=O)N[C@@H](CCC(N)=O)C(=O)N[C@@H](CCCNC(=N)N)C(=O)N[C@@H](CCCNC(=N)N)C(=O)N[C@@H](CCCNC(=N)N)C(=O)O)C(C)C)[C@@H](C)O)[C@@H](C)O)C(C)C (H-GVLYVGSKTRGSGSSGGDDDWTHVSSYGRKKRRQRRR-OH)						Activity (Alpha-synuclein [7]): inactive
CC(C)C[C@H](NC(=O)CNC(=O)[C@H](Cc1ccc(O)cc1)NC(=O)[C@@H](N)C(C)C)C(=O)N[C@@H](CCCNC(=N)N)C(=O)NCC(=O)N[C@H](C(=O)N[C@@H](CO)C(=O)N[C@H](C(=O)N[C@@H](CCCCN)C(=O)NCC(=O)N[C@@H](CO)C(=O)NCC(=O)N[C@@H](CO)C(=O)N[C@@H](CO)C(=O)NCC(=O)NCC(=O)N[C@@H](CC(=O)O)C(=O)N[C@@H](CC(=O)O)C(=O)N[C@@H](CC(=O)O)C(=O)N[C@@H](Cc1c[nH]c2ccccc12)C(=O)N[C@H](C(=O)N[C@@H](Cc1c[nH]cn1)C(=O)N[C@@H](CC(C)C)C(=O)N[C@@H](CO)C(=O)N[C@@H](CO)C(=O)N[C@@H](Cc1ccc(O)cc1)C(=O)NCC(=O)N[C@@H](CCCNC(=N)N)C(=O)N[C@@H](CCCCN)C(=O)N[C@@H](CCCCN)C(=O)N[C@@H](CCCNC(=N)N)C(=O)N[C@@H](CCCNC(=N)N)C(=O)N[C@@H](CCC(N)=O)C(=O)N[C@@H](CCCNC(=N)N)C(=O)N[C@@H](CCCNC(=N)N)C(=O)N[C@@H](CCCNC(=N)N)C(=O)O)[C@@H](C)O)[C@@H](C)O)C(C)C (H-VYGLRGVSTKGSGSSGGDDDWTHLSSYGRKKRRQRRR-OH)						Activity (Alpha-synuclein [7]): inactive
CC(C)C[C@H](NC(=O)[C@H](Cc1c[nH]cn1)NC(=O)[C@@H](NC(=O)[C@H](Cc1c[nH]c2ccccc12)NC(=O)[C@H](CC(=O)O)NC(=O)[C@H](CC(=O)O)NC(=O)[C@H](CC(=O)O)NC(=O)CNC(=O)CNC(=O)[C@H](CO)NC(=O)[C@H](CO)NC(=O)CNC(=O)[C@H](CO)NC(=O)CNC(=O)[C@H](CCCNC(=N)N)NC(=O)[C@@H](NC(=O)[C@H](CCCCN)NC(=O)[C@H](CO)NC(=O)CNC(=O)[C@@H](NC(=O)[C@H](Cc1ccc(O)cc1)NC(=O)[C@H](CC(C)C)NC(=O)[C@@H](NC(=O)CN)C(C)C)C(C)C)[C@@H](C)O)[C@@H](C)O)C(=O)N[C@@H](CO)C(=O)N[C@@H](CO)C(=O)N[C@@H](CCCNC(=N)N)C(=O)N[C@@H](CCCNC(=N)N)C(=O)N[C@@H](CCCNC(=N)N)C(=O)N[C@@H](CCCNC(=N)N)C(=O)N[C@@H](CCCNC(=N)N)C(=O)N[C@@H](CCCNC(=N)N)C(=O)N[C@@H](CCCNC(=N)N)C(=O)O (H-GVLYVGSKTRGSGSSGGDDDWTHLSSRRRRRRR-OH)	Stable	56.8	Dose-Dependent Effect	inactive	Non-Toxic	
CCN(CC)c1ccc2c(-c3ccccc3C(=O)NCC(=O)N[C@H](C(=O)N[C@@H](CC(C)C)C(=O)N[C@@H](Cc3ccc(O)cc3)C(=O)N[C@H](C(=O)NCC(=O)N[C@@H](CO)C(=O)N[C@@H](CCCCN)C(=O)N[C@H](C(=O)N[C@@H](CCCNC(=N)N)C(=O)NCC(=O)N[C@@H](CO)C(=O)NCC(=O)N[C@@H](CO)C(=O)N[C@@H](CO)C(=O)NCC(=O)NCC(=O)N[C@@H](CC(=O)O)C(=O)N[C@@H](CC(=O)O)C(=O)N[C@@H](CC(=O)O)C(=O)N[C@@H](Cc3c[nH]c4ccccc34)C(=O)N[C@H](C(=O)N[C@@H](Cc3c[nH]cn3)C(=O)N[C@@H](CC(C)C)C(=O)N[C@@H](CO)C(=O)N[C@@H](CO)C(=O)N[C@@H](CCCNC(=N)N)C(=O)N[C@@H](CCCNC(=N)N)C(=O)N[C@@H](CCCNC(=N)N)C(=O)N[C@@H](CCCNC(=N)N)C(=O)N[C@@H](CCCNC(=N)N)C(=O)N[C@@H](CCCNC(=N)N)C(=O)N[C@@H](CCCNC(=N)N)C(=O)O)[C@@H](C)O)[C@@H](C)O)C(C)C)C(C)C)c3ccc(=[N+](CC)CC)cc-3oc2c1.[Cl-] (RhodamineB-GVLYVGSKTRGSGSSGGDDDWTHLSSRRRRRRR-OH)						Drug uptake [4]: Active; Drug uptake [5]: Active
CC[C@H](C)[C@H](NC(=O)[C@H](Cc1ccc(O)cc1)NC(=O)[C@H](CC(=O)O)NC(=O)[C@H](CCC(=O)O)NC(=O)[C@H](CO)NC(=O)[C@H](CO)NC(=O)[C@H](C)NC(=O)[C@H](CO)NC(=O)[C@H](CO)NC(=O)CNC(=O)[C@H](CO)NC(=O)CNC(=O)[C@H](CCCNC(=N)N)NC(=O)[C@@H](NC(=O)[C@H](CCCCN)NC(=O)[C@H](CO)NC(=O)CNC(=O)[C@@H](NC(=O)[C@H](Cc1ccc(O)cc1)NC(=O)[C@H](CC(C)C)NC(=O)[C@@H](NC(=O)CN)C(C)C)C(C)C)[C@@H](C)O)C(=O)N[C@H](C(=O)N[C@H](C(=O)N[C@@H](CC(C)C)C(=O)N1CCC[C@H]1C(=O)N[C@@H](Cc1ccc(O)cc1)C(=O)NCC(=O)N[C@@H](CCCNC(=N)N)C(=O)N[C@@H](CCCCN)C(=O)N[C@@H](CCCCN)C(=O)N[C@@H](CCCNC(=N)N)C(=O)N[C@@H](CCCNC(=N)N)C(=O)N[C@@H](CCC(N)=O)C(=O)N[C@@H](CCCNC(=N)N)C(=O)N[C@@H](CCCNC(=N)N)C(=O)N[C@@H](CCCNC(=N)N)C(=O)O)[C@@H](C)CC)[C@@H](C)CC (H-GVLYVGSKTRGSGSSASSEDYIIILPYGRKKRRQRRR-OH)	Stable	73.8	Dose-Dependent Effect	inactive	Non-Toxic	Kd [10]: 15.2 µM; Kd (Alpha-synuclein [11]): 25.3 µM
CC[C@H](C)[C@H](NC(=O)[C@H](CCC(=O)O)NC(=O)[C@@H](NC(=O)[C@H](Cc1ccccc1)NC(=O)[C@H](CO)NC(=O)[C@H](CC(=O)O)NC(=O)[C@H](CCC(=O)O)NC(=O)[C@H](CO)NC(=O)[C@H](CO)NC(=O)CNC(=O)[C@H](CO)NC(=O)CNC(=O)[C@H](CO)NC(=O)CNC(=O)[C@H](CCCNC(=N)N)NC(=O)[C@@H](NC(=O)[C@H](CCCCN)NC(=O)[C@H](CO)NC(=O)CNC(=O)[C@@H](NC(=O)[C@H](Cc1ccc(O)cc1)NC(=O)[C@H](CC(C)C)NC(=O)[C@@H](NC(=O)CN)C(C)C)C(C)C)[C@@H](C)O)C(C)C)C(=O)N[C@@H](CCCNC(=N)N)C(=O)N[C@@H](CCSC)C(=O)N[C@@H](Cc1ccc(O)cc1)C(=O)NCC(=O)N[C@@H](CCCNC(=N)N)C(=O)N[C@@H](CCCCN)C(=O)N[C@@H](CCCCN)C(=O)N[C@@H](CCCNC(=N)N)C(=O)N[C@@H](CCCNC(=N)N)C(=O)N[C@@H](CCC(N)=O)C(=O)N[C@@H](CCCNC(=N)N)C(=O)N[C@@H](CCCNC(=N)N)C(=O)N[C@@H](CCCNC(=N)N)C(=O)O (H-GVLYVGSKTRGSGSGSSEDSFVEIRMYGRKKRRQRRR-OH)	Stable	140	Dose-Dependent Effect	inactive	Non-Toxic	Kd [10]: 17.2 µM; Kd (Alpha-synuclein [11]): 41.6 µM

Source: ChEMBL document CHEMBL5321295, “Targeted Degradation of Alpha-Synuclein by Autophagosome-Anchoring Chimera Peptides” (J Med Chem, 2023)
